Experimental data as given in ChEMBL document CHEMBL1201862, “PubChem BioAssay data set” (2004).
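Assay format: 96-well plates, 48-hour exposure. The concentration for 50% growth inhibition is given as GI50.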 Active and inactive are the calls of the source. Cut-off read from the data, not from the text of the source: active = GI50 up to about 1.1 µM and inactive = higher.

Columns and labels:
Test in all cases: inhibition of tumour cell growth, NCI panel, 48 h
[1] = test system: SK-MEL-5
[2] = test system: DU-145
[3] = test system: PC-3
[4] = test system: HCT-15
[5] = test system: SK-MEL-2
[6] = test system: ACHN
[7] = test system: 786-0
[8] = test system: SF-295
[9] = test system: U-251
[10] = test system: SNB-75
[11] = test system: UACC-257
[12] = test system: HCT-116
[13] = test system: SK-MEL-28
[14] = test system: HOP-92
[15] = test system: IGROV-1
[16] = test system: OVCAR-4
[17] = test system: SF-539
[18] = test system: K562
[19] = test system: HCC 2998
[20] = test system: HL-60

SMILES	GI50 [1]	GI50 [2]	GI50 [3]	GI50 [4] [µM]	GI50 [5]	GI50 [6]	GI50 [7]	GI50 [8]	GI50 [9]	GI50 [10]	GI50 [11]	GI50 [12]	GI50 [13]	GI50 [14]	GI50 [15]	GI50 [16]	GI50 [17]	GI50 [18]	GI50 [19]	GI50 [20]
COC(=O)CCCC(=O)O	> 100 µM (inactive)	> 100 µM (inactive)	> 100 µM (inactive)	> 100	> 100 µM (inactive)	> 100 µM (inactive)	> 100 µM (inactive)	> 100 µM (inactive)	> 100 µM (inactive)	> 100 µM (inactive)	> 100 µM (inactive)	> 100 µM (inactive)	> 100 µM (inactive)	> 100 µM (inactive)	> 100 µM (inactive)	> 100 µM (inactive)	–	–	–	–
O=C(O)C1CC2(C1)CC(C(=O)O)C2 (centres undefined)	> 100 µM (inactive)	> 100 µM (inactive)	> 100 µM (inactive)	> 100	> 100 µM (inactive)	> 100 µM (inactive)	> 100 µM (inactive)	> 100 µM (inactive)	> 100 µM (inactive)	> 100 µM (inactive)	> 100 µM (inactive)	> 100 µM (inactive)	> 100 µM (inactive)	–	> 100 µM (inactive)	> 100 µM (inactive)	> 100 µM (inactive)	> 100 µM (inactive)	> 100 µM (inactive)	–
CN1C2CCC1CC(=CCOC(c1ccc(F)cc1)c1ccc(F)cc1)C2	10.3 µM (inactive)	16.9 µM (inactive)	16.1 µM (inactive)	15.7	19.1 µM (inactive)	17.4 µM (inactive)	14 µM (inactive)	16.9 µM (inactive)	17.2 µM (inactive)	13.8 µM (inactive)	16.1 µM (inactive)	11.8 µM (inactive)	18.9 µM (inactive)	–	15.7 µM (inactive)	16.2 µM (inactive)	16.4 µM (inactive)	5.94 µM (inactive)	4 µM (inactive)	13.6 µM (inactive)
OCCN(C1=NCCN1)/[N+](=C/c1ccccc1O)[CH-]c1ccccc1O	> 100 µM (inactive)	> 100 µM (inactive)	> 100 µM (inactive)	51.5	> 100 µM (inactive)	> 100 µM (inactive)	> 100 µM (inactive)	> 100 µM (inactive)	> 100 µM (inactive)	> 100 µM (inactive)	> 100 µM (inactive)	> 100 µM (inactive)	–	–	> 100 µM (inactive)	> 100 µM (inactive)	> 100 µM (inactive)	> 100 µM (inactive)	> 100 µM (inactive)	> 100 µM (inactive)
CCc1n[nH]c(=O)n1/N=C/c1ccc(/C=N/n2c(CC)n[nH]c2=O)cc1	> 100 µM (inactive)	> 100 µM (inactive)	> 100 µM (inactive)	> 100	> 100 µM (inactive)	> 100 µM (inactive)	> 100 µM (inactive)	> 100 µM (inactive)	> 100 µM (inactive)	–	> 100 µM (inactive)	> 100 µM (inactive)	> 100 µM (inactive)	–	> 100 µM (inactive)	> 100 µM (inactive)	–	> 100 µM (inactive)	–	> 100 µM (inactive)
COI1NC(=O)c2ccccc21	> 100 µM (inactive)	> 100 µM (inactive)	> 100 µM (inactive)	> 100	> 100 µM (inactive)	> 100 µM (inactive)	> 100 µM (inactive)	> 100 µM (inactive)	> 100 µM (inactive)	> 100 µM (inactive)	–	> 100 µM (inactive)	> 100 µM (inactive)	> 100 µM (inactive)	> 100 µM (inactive)	> 100 µM (inactive)	–	> 100 µM (inactive)	–	> 100 µM (inactive)
CC1=C[C@H](O)[C@@]2(C)[C@@H]([C@@H]1C)[C@H]1CC[C@@H]3[C@@]4(C)CC[C@H](O)C(C)(C)[C@@H]4CC[C@@]3(C)[C@]1(C)C[C@@H]2O	16.5 µM (inactive)	16.4 µM (inactive)	20.6 µM (inactive)	19	23.3 µM (inactive)	–	14 µM (inactive)	16.1 µM (inactive)	20 µM (inactive)	–	20.1 µM (inactive)	12.4 µM (inactive)	18.3 µM (inactive)	13.8 µM (inactive)	20.5 µM (inactive)	17.9 µM (inactive)	–	19.6 µM (inactive)	18.8 µM (inactive)	–
COc1cccc(/C=C2\N=C(Cl)OC2=O)c1O	> 100 µM (inactive)	> 100 µM (inactive)	–	> 100	> 100 µM (inactive)	> 100 µM (inactive)	> 94.6 µM (inactive)	> 100 µM (inactive)	> 85.9 µM (inactive)	30.5 µM (inactive)	> 100 µM (inactive)	> 100 µM (inactive)	> 100 µM (inactive)	> 100 µM (inactive)	> 100 µM (inactive)	> 100 µM (inactive)	> 100 µM (inactive)	> 100 µM (inactive)	> 100 µM (inactive)	> 100 µM (inactive)
O=C(O)C(O)(c1ccc(-c2ccccc2)cc1)c1ccc(-c2ccccc2)cc1	18.9 µM (inactive)	16.6 µM (inactive)	27 µM (inactive)	19.2	14.1 µM (inactive)	32.1 µM (inactive)	24.5 µM (inactive)	34 µM (inactive)	17.1 µM (inactive)	17.1 µM (inactive)	36.1 µM (inactive)	23.5 µM (inactive)	35.3 µM (inactive)	19.1 µM (inactive)	23.4 µM (inactive)	36 µM (inactive)	–	80.9 µM (inactive)	–	21.5 µM (inactive)
CC1CC/C(=C\c2ccc(Cl)cc2)C2OC(N)=C(C#N)C(c3ccc(Cl)cc3)=C12 (centres undefined)	15.4 µM (inactive)	17 µM (inactive)	11.9 µM (inactive)	11.1	10.8 µM (inactive)	16.4 µM (inactive)	13.6 µM (inactive)	–	15.2 µM (inactive)	–	31.6 µM (inactive)	12.6 µM (inactive)	16.1 µM (inactive)	–	12.3 µM (inactive)	–	14.3 µM (inactive)	9.66 µM (inactive)	–	2.88 µM (inactive)
C[C@@H]1C(=O)CC2(O)[C@@]13C[C@@H](OC(=O)[C@@H]3O)[C@@H](C)[C@@]21COC1=O (some centres undefined)	> 100 µM (inactive)	> 100 µM (inactive)	> 100 µM (inactive)	> 100	> 100 µM (inactive)	> 100 µM (inactive)	> 100 µM (inactive)	> 100 µM (inactive)	> 100 µM (inactive)	> 100 µM (inactive)	> 100 µM (inactive)	> 100 µM (inactive)	> 100 µM (inactive)	–	> 100 µM (inactive)	> 100 µM (inactive)	> 100 µM (inactive)	> 100 µM (inactive)	> 100 µM (inactive)	> 100 µM (inactive)
CC1(C)/C(=N\Nc2ccc([N+](=O)[O-])cc2[N+](=O)[O-])C2CCC1C2 (centres undefined)	4.2 µM (inactive)	> 100 µM (inactive)	> 100 µM (inactive)	> 100	> 100 µM (inactive)	54 µM (inactive)	81.8 µM (inactive)	15.2 µM (inactive)	> 100 µM (inactive)	3.34 µM (inactive)	19.3 µM (inactive)	5.65 µM (inactive)	> 100 µM (inactive)	93.8 µM (inactive)	> 100 µM (inactive)	84.5 µM (inactive)	–	> 100 µM (inactive)	–	> 100 µM (inactive)
C=CC[C@]1(/C=N/O)CN(S(=O)(=O)CC[Si](C)(C)C)C[C@H]2CC=CC[C@H]21	29.4 µM (inactive)	20.6 µM (inactive)	17.6 µM (inactive)	38.4	15 µM (inactive)	> 10 µM (inactive)	18.5 µM (inactive)	15.6 µM (inactive)	17.7 µM (inactive)	21 µM (inactive)	21.2 µM (inactive)	14.2 µM (inactive)	22.6 µM (inactive)	–	15.4 µM (inactive)	14.8 µM (inactive)	18.2 µM (inactive)	18.4 µM (inactive)	16.7 µM (inactive)	–
CCOc1c2c(cc3c1C(=O)c1c(OC)cccc1C3=O)C=C(OC)CC2	10.1 µM (inactive)	> 25 µM (inactive)	17.8 µM (inactive)	11.9	> 25 µM (inactive)	> 25 µM (inactive)	> 25 µM (inactive)	10.7 µM (inactive)	22.3 µM (inactive)	8.28 µM (inactive)	> 25 µM (inactive)	17.4 µM (inactive)	> 25 µM (inactive)	> 25 µM (inactive)	15.2 µM (inactive)	> 25 µM (inactive)	> 25 µM (inactive)	6.87 µM (inactive)	–	5.62 µM (inactive)
O=c1cc(NNc2ccc(F)cc2)[nH]c(=O)[nH]1	25.7 µM (inactive)	> 100 µM (inactive)	16.6 µM (inactive)	16.1	21.4 µM (inactive)	17.9 µM (inactive)	12.5 µM (inactive)	> 100 µM (inactive)	25.6 µM (inactive)	12.7 µM (inactive)	> 100 µM (inactive)	17.9 µM (inactive)	18.3 µM (inactive)	–	16.6 µM (inactive)	9.68 µM (inactive)	21.5 µM (inactive)	17.8 µM (inactive)	23.4 µM (inactive)	6.65 µM (inactive)
N#CC(C#N)/N=N/c1ccc(-c2nc3ccccc3[nH]2)cc1	35.6 µM (inactive)	16.4 µM (inactive)	15.8 µM (inactive)	21.7	21.7 µM (inactive)	13.7 µM (inactive)	21.2 µM (inactive)	> 100 µM (inactive)	28.1 µM (inactive)	42 µM (inactive)	14.9 µM (inactive)	15.4 µM (inactive)	20.2 µM (inactive)	22.5 µM (inactive)	16.8 µM (inactive)	22 µM (inactive)	15.9 µM (inactive)	19.6 µM (inactive)	–	0.288 µM (active)
